According to patent US8461205B2, “Anthranilic acid derivatives” (Chelsea Therapeutics, Inc., priority 2007, dated 2013):

Columns and labels:
[1] = Metabolic stability in human liver microsomes; type: in vitro ADME; conditions: human liver microsomes, 0.5 μM compound, 1 mg/mL protein, 1 mM NADPH, pH 7.4, 37° C.; "stable" = no degradation could be confirmed
Method: The metabolic stability of the test compounds was determined using human liver microsomes. Incubations were performed with a compound concentration of 0.5 μM and a protein concentration of 1 mg/mL in 50 mM sodium phosphate buffer at physiological pH (7.4) and temperature (37° C.). The incubation mixture was preincubated at 37° C. prior to addition of NADPH (1 mM, final concentration). At several time points during 60 minutes, aliquots were removed and added to a 96 well plate placed on dry ice and deep-frozen. Samples were analyzed with LC-MS for concentration of parent compound. From the slope of the log [parent compound] vs. incubation time regression line, the in vitro half-life […] was determined. The intrinsic clearance (CLint) can be calculated using a modified Michaelis-Menten relationship, i.e., CLint=ln 2/t1/2. The CLint can then be converted to CL by using the well-stirred model of hepatic extraction. A value of 1.24 L/h/kg of the hepatic blood flow in man can be used. Results with respect to a number of compounds of the invention are reported as t1/2 (in minutes) in Table 1.
(§1) The inhibition of T cell proliferation was studied in a human T lymphoblast cell line (Jurkat). The IC50 value for each compound was calculated from the dose response curve. Adding uridine was used to monitor the specificity of the DHODH mechanism. The metabolic stability was studied in human liver microsomes. Table 1 exemplifies the invention, without limiting the scope thereof.

[2] = system: human T lymphoblast cell line (Jurkat); assay: Inhibition of T-cell proliferation (Jurkat, 3H-TdR incorporation); type: cell-based; conditions: for IC50: Homo sapiens, Jurkat cells, 3 days culture, 3H-TdR pulse last 4 hours
Method: Inhibition of T cell proliferation was studied in a functional assay. A human T lymphoblast cell line (Jurkat) was cultured in the presence and absence, respectively, of DHODH inhibiting compounds. Jurkat cells were seeded in microtiterplates at a concentration of 5×10^5/mL in RPMI 1640 growth media supplemented with ultraglutamin, 10% fetal calf serum, 1 mM sodium pyruvat, 10 mM HEPES and 0.1 mg/mL gentamycin. A dilution series of ten different concentrations of inhibitor was added to the wells and the plates were kept in a cell incubator for 3 days. At the beginning of the last 4 hours period, the cultures were pulsed with 10 μl/well 0.1 Ci/mmol 3H-TdR and then harvested on filter papers and counted with a ([…]. The IC50 values for each compound were calculated from the obtained dose response curves. Adding uridine to a concentration of about 50 μM in the wells monitored the specificity for the mechanism i.e., the inhibition of cell proliferation is due to DHODH inhibition and not to a general cell toxicity of the compounds. This addition of uridine reverses the anti-proliferative effect by bypassing the DHODH enzyme using an external source of pyrimidine. Results in respect of a number of compounds of the invention are reported as Jurkat IC50 (in μM) in Table 1.
as §1

Row | SMILES | t1/2 [1] | IC50 [2] | half-life at 0.5 μM [1] | inhibitory effect on T-cell proliferation (in words) ([2]; Jurkat, cf. Table 1)
1 | CCC(=O)Nc1ccc(COc2ccc(C(F)(F)F)cc2C(F)(F)F)cc1C(=O)O [INV 1, 5-(2,4-Bis-trifluoromethyl-phenoxymethyl)-2-propionylamino-benzoic acid] | stable | 600 nM | – | –
2 | CCC(=O)Nc1ccc(COc2ccc(F)cc2C(F)(F)F)cc1C(=O)O [INV 2, 5-(4-Fluoro-2-trifluoromethyl-phenoxymethyl)-2-propionylamino-benzoic acid] | – | 580 nM | 3.93 h | –
3 | CCC(=O)Nc1ccc(COc2ccc(Br)cc2C(F)(F)F)cc1C(=O)O [INV 3, 5-(4-Bromo-2-trifluoromethyl-phenoxymethyl)-2-propionylamino-benzoic acid] | – | 470 nM | 3.9 h | –
4 | CCC(=O)Nc1ccc(COc2ccc(C(F)(F)F)cc2Cl)cc1C(=O)O [INV 4, 5-(2-Chloro-4-trifluoromethyl-phenoxymethyl)-2-propionylamino-benzoic acid] | stable | 420 nM | – | –
5 | CCC(=O)Nc1ccc(COc2ccc(F)cc2Cl)cc1C(=O)O [INV 5, 5-(2-Chloro-4-fluoro-phenoxymethyl)-2-propionylamino-benzoic acid] | – | 190 nM | 5.38 h | –
6 | CCC(=O)Nc1ccc(COc2ccc(Cl)cc2Cl)cc1C(=O)O [INV 6, 5-(2,4-Dichloro-phenoxymethyl)-2-propionylamino-benzoic acid] | – | 350 nM | 3.32 h | –
7 | CCC(=O)Nc1ccc(COc2ccc(C(F)(F)F)cc2Br)cc1C(=O)O [INV 7, 5-(2-Bromo-4-trifluoromethyl-phenoxymethyl)-2-propionylamino-benzoic acid] | – | 490 nM | 6.8 h | –
8 | CCC(=O)Nc1ccc(COc2ccc(F)cc2Br)cc1C(=O)O [INV 8, 5-(2-Bromo-4-fluoro-phenoxymethyl)-2-propionylamino-benzoic acid] | – | 360 nM | 5.33 h | –
9 | CCC(=O)Nc1ccc(COc2ccc(Cl)cc2Br)cc1C(=O)O [INV 9, 5-(2-Bromo-4-chloro-phenoxymethyl)-2-propionylamino-benzoic acid] | – | 240 nM | 2.8 h | –
10 | CCC(=O)Nc1ccc(COc2ccc(OC(F)(F)F)cc2Cl)cc1C(=O)O [INV 10, 5-(2-Chloro-4-trifluoromethoxy-phenoxymethyl)-2-propionylamino-benzoic acid] | stable | 240 nM | – | –
11 | CCC(=O)Nc1ccc(/C=C/c2ccc(C(F)(F)F)cc2C(F)(F)F)cc1C(=O)O [INV 11, 5-[(E)-2-(2,4-Bis-trifluoromethyl-phenyl)-vinyl]-2-propionylamino-benzoic acid] | – | 90 nM | 8.15 h | –
12 | CCC(=O)Nc1ccc(/C=C/c2ccc(F)cc2C(F)(F)F)cc1C(=O)O [INV 12, 5-[(E)-2-(4-Fluoro-2-trifluoromethyl-phenyl)-vinyl]-2-propionylamino-benzoic acid] | – | 160 nM | 2.65 h | –
13 | CCC(=O)Nc1ccc(/C=C/c2ccc(Cl)cc2C(F)(F)F)cc1C(=O)O [INV 13, 5-[(E)-2-(4-Chloro-2-trifluoromethyl-phenyl)-vinyl]-2-propionylamino-benzoic acid] | – | 50 nM | 1.75 h | –
14 | CCC(=O)Nc1ccc(/C=C/c2ccc(F)cc2F)cc1C(=O)O [INV 14, 5-[(E)-2-(2,4-Difluoro-phenyl)-vinyl]-2-propionylamino-benzoic acid] | – | 240 nM | 3.55 h | –
15 | CCC(=O)Nc1ccc(/C=C/c2ccc(F)cc2Cl)cc1C(=O)O [INV 15, 5-[(E)-2-(2-Chloro-4-fluoro-phenyl)-vinyl]-2-propionylamino-benzoic acid] | – | 35 nM | 2.28 h | –
16 | CCC(=O)Nc1ccc(/C=C/c2ccc(Cl)cc2Cl)cc1C(=O)O [INV 16, 5-[(E)-2-(2,4-Dichloro-phenyl)-vinyl]-2-propionylamino-benzoic acid] | – | 20 nM | 1.83 h | –
17 | CCC(=O)Nc1ccc(COc2ccc(F)c(C(F)(F)F)c2)cc1C(=O)O [INV 17, 5-(4-Fluoro-3-trifluoromethyl-phenoxymethyl)-2-propionylamino-benzoic acid] | – | 530 nM | 1.73 h | –

Row | SMILES | t1/2 [1] | IC50 [2] | half-life at 0.5 μM [1] | inhibitory effect on T-cell proliferation (in words) ([2]; Jurkat, cf. Table 1)
18 | CCC(=O)Nc1ccc(COc2ccc(Cl)c(C(F)(F)F)c2)cc1C(=O)O [INV 18, 5-(4-Chloro-3-trifluoromethyl-phenoxymethyl)-2-propionylamino-benzoic acid] | – | 840 nM | 7.73 h | –
19 | CCC(=O)Nc1ccc(COc2ccc(F)c(Cl)c2)cc1C(=O)O [INV 19, 5-(3-Chloro-4-fluoro-phenoxymethyl)-2-propionylamino-benzoic acid] | – | 420 nM | 1.18 h | –
20 | CCC(=O)Nc1ccc(COc2ccc(Br)c(Cl)c2)cc1C(=O)O [INV 20, 5-(4-Bromo-3-chloro-phenoxymethyl)-2-propionylamino-benzoic acid] | – | 730 nM | 1.2 h | –
21 | CCC(=O)Nc1ccc(COc2ccc(OC(F)(F)F)c(Cl)c2)cc1C(=O)O [INV 21, 5-(3-Chloro-4-trifluoromethoxy-phenoxymethyl)-2-propionylamino-benzoic acid] | – | 890 nM | 2.8 h | –
22 | CCC(=O)Nc1ccc(COc2ccc(OC(F)(F)F)c(Br)c2)cc1C(=O)O [INV 22, 5-(3-Bromo-4-trifluoromethoxy-phenoxymethyl)-2-propionylamino-benzoic acid] | – | 710 nM | 3.3 h | –
23 | CCC(=O)Nc1ccc(/C=C/c2ccc(F)c(C(F)(F)F)c2)cc1C(=O)O [INV 23, 5-[(E)-2-(4-Fluoro-3-trifluoromethyl-phenyl)-vinyl]-2-propionylamino-benzoic acid] | – | 750 nM | 2.45 h | –
24 | CCC(=O)Nc1ccc(/C=C/c2ccc(Cl)c(C(F)(F)F)c2)cc1C(=O)O [INV 24, 5-[(E)-2-(4-Chloro-3-trifluoromethyl-phenyl)-vinyl]-2-propionylamino-benzoic acid] | – | 570 nM | 5.75 h | –
25 | CCC(=O)Nc1ccc(/C=C/c2ccc(C(F)(F)F)c(F)c2)cc1C(=O)O [INV 25, 5-[(E)-2-(3-Fluoro-4-trifluoromethyl-phenyl)-vinyl]-2-propionylamino-benzoic acid] | stable | 740 nM | – | –
26 | CCC(=O)Nc1ccc(/C=C/c2ccc(F)c(Cl)c2)cc1C(=O)O [INV 26, 5-[(E)-2-(3-Chloro-4-fluoro-phenyl)-vinyl]-2-propionylamino-benzoic acid] | – | 750 nM | 1.22 h | –
27 | CCC(=O)Nc1ccc(/C=C/c2ccc(Cl)c(Cl)c2)cc1C(=O)O [INV 27, 5-[(E)-2-(3,4-Dichloro-phenyl)-vinyl]-2-propionylamino-benzoic acid] | – | 480 nM | 1.92 h | –
28 | CCC(=O)Nc1ccc(/C=C/c2ccc(OC(F)(F)F)c(Cl)c2)cc1C(=O)O [INV 28, 5-[(E)-2-(3-Chloro-4-trifluoromethoxy-phenyl)-vinyl]-2-propionylamino-benzoic acid] | – | 600 nM | – | –
29 | CCC(=O)Nc1ccc(OCc2ccc(Cl)cc2C(F)(F)F)cc1C(=O)O [INV 29, 5-(4-Chloro-2-trifluoromethyl-benzyloxy)-2-propionylamino-benzoic acid] | – | 570 nM | 1.83 h | –
30 | CCC(=O)Nc1ccc(OCc2ccc(C(F)(F)F)cc2Br)cc1C(=O)O [INV 30, 5-(2-Bromo-4-trifluoromethyl-benzyloxy)-2-propionylamino-benzoic acid] | – | 590 nM | 3.18 h | –
31 | O=C(O)c1cc(OCc2ccc(Br)cc2C(F)(F)F)ccc1NC(=O)C1CC1 [INV 31, 5-(4-Bromo-2-trifluoromethyl-benzyloxy)-2-(cyclopropanecarbonyl-amino)-benzoic acid] | – | 420 nM | 3.87 h | –
32 | COc1ccc(OC)c(CCc2ccc(NC(C)=O)c(C(=O)O)c2)c1 [REF 9, 2-acetylamino-5-[2-(2,5-dimethoxy-phenyl)-ethyl]-benzoic acid, reference compound] | – | 12000 nM | – | very weak inhibitory effect
33 | CCC(=O)Nc1ccc(OCc2ccccc2C(F)(F)F)cc1C(=O)OC [REF 10, 2-Propionylamino-5-(2-trifluoromethyl-benzyloxy)-benzoic acid methyl ester, reference compound] | – | 12300 nM | – | –
